Tests used:
[1] = system: N1Neu; test: N1Neu sialidase inhibition screen; assay type: biochemical; details: 2 mM Zanamivir; 1500 ug Zizyphus extract; 10 minute time point
Experimental: An initial screen of N1Neu inhibition using a variety of compounds and the commercially available sialidase (neuraminidase) inhibitor Zanamivir (which is sold in the pharmaceutical preparation “Relenza™” as a treatment for flu) was performed.
Sialidase assays were performed, reactions contained 0.1 mM MUNANA, pH 7.4 50 mM Tris, 5 mM CaCl2), 200 mM NaCl, plant extract or the control sialidase inhibitor Zanamivir at the concentrations indicated, or no putative inhibitor. N1Neu was present at 0.025 μg/ml in reactions. 50 μl of these reactions were quenched using 100 μl of 100 mM sodium carbonate buffer, pH 10.5, at 5 minutes and 10 minutes. The 10 minute time point was used to assess sialidase activity. Data shown represent the mean of one experiment, where each condition was repeated in triplicate. MU present in quenched reactions was quantified using TECAN M200 Infinite microplate reader at excitation 340 nm emission 430 nm, and expressed as the percentage of sialidase activity (MU fluorescence) relative to the no inhibitor condition.

[2] = system: sialidase of T. forsythia homogenate; test: Sialidase activity of homogenate of T. forsythia; assay type: biochemical, Tannerella forsythia; details: 2 mM Zanamivir; 1500 μg/ml Zizyphus
Experimental: (§1) MU release can be used to quantify sialidase activity.
(§2) Whole bacteria or purified sialidases were exposed to MUNANA, in the presence or absence of compound 1 (Example 3) or Zizyphus fruit 50% aqueous ethanol extract containing 1% of the N-methyl-prolines.
(§3) […] Reactions were stopped at 30 seconds and 60 seconds via addition of ph 10.5 60 mM sodium carbonate buffer. Release of fluorogenic MU was quantified by measuring fluorescence emission at 450 nm, excitation 350 nm. Percentage sialidase activity was expressed as the change in fluorescence between 30 seconds and 60 seconds compared to that of a reaction without inhibitor. Reactions were carried out in triplicate.

[3] = system: sialidase of P. gingivalis homogenate; test: Sialidase activity of homogenate of P. gingivalis; assay type: biochemical, Porphyromonas gingivalis; details: 2 mM Zanamivir; 1500 μg/ml Zizyphus
Experimental: as §1, §2, §3

SMILES: CC(=O)N[C@H]1[C@H]([C@H](O)[C@H](O)CO)OC(C(=O)O)=C[C@@H]1N=C(N)N [Zanamivir]
- % inhibition [1]: 100%
- % inhibition [2]: 22%
- % inhibition [3]: 51%

— US20260078089A1, “BIOACTIVE PHYTOCHEMICALS IN ZIZYPHUS AND GUARANA” (Phytoquest Limited, priority 2018, published 2026)
